Values of other authors as cited in patent US12128066B2, “Product for treating skin fungus and its micronized preparation method” (priority 2021, dated 2024).

Settings: in water or organic solvents

S=[Se]=S [Selenium disulfide]
Solubility: almost insoluble
